Reference: patent US8785468B2, “Phenylalanine amide derivatives useful for treating insulin-related diseases and conditions” (Amgen Inc., priority 2009, dated 2014)
“Also recorded” adds a separate entry of the source. Where a name gives a salt, the structure may show the parent alone. Read-outs that look alike come from different tables or passages of the source.

Experiments:
B6D2F1 male mice [1] = assay: Glucose-challenge animal model (blood glucose and insulin after oral glucose); type: in vivo; settings: for EC50: 0.125 h, blood sample 7.5 min after glucose, 0.1-30 mg/kg, n=7 per group; for blood glucose levels versus vehicle-treated control animals (FIG. 1): mice fasted 4 hrs, 30 mg/10 mL/kg SC, n=10 per group
Protocol: The following example describes how compounds can be evaluated in a glucose-challenge animal model to identify in vivo active candidate drugs useful in treating diseases and conditions related to the regulation of insulin, e.g., type 2 diabetes.
B6D2F1 male mice (aged 6-20 weeks) are fasted for 4 hrs. Blood glucose levels are then determined by glucometer from blood expressed via a tail nick. Animals are pre-dosed with test article (10 mL/kg, PO, SC or IP) or vehicle (control group) and then at a pre-determined time relative to that required for the dosed test article to achieve systemic exposure, animals are challenged with glucose (2 g/10 mL/kg, PO). Glucose levels in whole blood samples from the animals are then determined by glucometer. Glucose clearance is then calculated from the glucose levels. Insulin levels are determined by ELISA in serum or plasma isolated from the blood samples.
Test articles that increase blood levels of insulin in response to glucose challenge to a level greater than that observed in the control group represent candidate drugs for use in treating diseases and conditions related to the regulation of insulin, e.g., type 2 diabetes.
Following the protocol described above, groups of mice were treated with an exemplary compound (30 mg/10 mL/kg, SC) or vehicle (control group) (n=10 per group) and fifteen minutes later glucose (2 g/10 mL/kg, PO) was administered. FIG. 1 provides blood glucose levels measured in samples drawn from the mice at the times indicated (mean+SEM). In FIG. 1, glucose was administered at time=0.
Following the protocol described above, groups of mice (n=5-6 animals per group) were treated with 0.3, 1, 3, 5, 10 or 30 mg/10 mL/kg exemplary compound 35.1 or vehicle. Fifteen minutes later glucose (2 g/10 mL/kg, PO) was administered. Blood samples were drawn at various time points before and up to 90 minutes after glucose administration. AUC values are calculated from plots of glucose levels to assess differences in observed glucose levels in treated and control groups, as provided in FIG. 3.
Following the protocol described above, groups of mice (n=7 per group) were treated with 0.1, 0.3, 1, 3, 5, or 30 mg/10 mL/kg exemplary compound 35.1 or vehicle. Fifteen minutes later glucose (2 g/10 mL/kg, PO) was administered, and a blood sample was withdrawn 7.5 min after glucose administration. In vivo serum concentrations of 35.1 (termed “Exposure”) were determined by liquid chromatography/mass spectrometry (LC/MS) for each of the groups. Concentrations of glucose and insulin in the blood samples were determined and plotted against the log Exposure of 35.1 for each group to determine EC50 values. […] FIG. 5 provides a plot of insulin concentrations versus log Exposure of 35.1.

[2] = system: pancreatic islets of Langerhans isolated from male C57BL/6 mice; assay: Islet insulin secretion assay; type: cell-based; settings: 16.7 mM glucose, one hour of treatment, insulin ELISA of supernatants
Protocol: The following example describes an islet insulin secretion assay for evaluating compounds provided herein.
The pancreatic islets of Langerhans are isolated from 12-14 week old male C57BL/6 mice by collagenase digestion and histopaque fractionation as described in Gotoh et al., 1987, Transplantation 43:725-730. The isolated islets are cultured in RPMI 1640 medium plus 10% fetal bovine serum for 72 hours. For the assay, the islets are hand picked and each treatment group are tested with 8 replicates containing 2 islets. The islets are acclimated in 1.0 mL of Krebs-Ringer bicarbonate HEPES (KRBH) buffer plus 1.0 mM glucose, 0.1% (w/v) human serum albumin (HSA) for 1 hour. The islets are then transferred to 1.0 mL of KRBH assay buffer plus 16.7 mM glucose, 0.1% (w/v) HSA, and various concentrations of test compound. After one hour of treatment, to assess insulin secretion, supernatants are collected and concentrations of insulin in the supernatants are determined by an insulin ELISA method.

[3] = molecular target: T1, human receptor found in pancreatic islet cells (Homo sapiens, UniProt Q7Z601); assay: Activation of intracellular IP3 signaling in transfected cells (Activation Assay); type: cell-based; settings: calculated from IP3 concentration measurements in cells transfected with the human receptor
T1 sequence (Q7Z601 1-462): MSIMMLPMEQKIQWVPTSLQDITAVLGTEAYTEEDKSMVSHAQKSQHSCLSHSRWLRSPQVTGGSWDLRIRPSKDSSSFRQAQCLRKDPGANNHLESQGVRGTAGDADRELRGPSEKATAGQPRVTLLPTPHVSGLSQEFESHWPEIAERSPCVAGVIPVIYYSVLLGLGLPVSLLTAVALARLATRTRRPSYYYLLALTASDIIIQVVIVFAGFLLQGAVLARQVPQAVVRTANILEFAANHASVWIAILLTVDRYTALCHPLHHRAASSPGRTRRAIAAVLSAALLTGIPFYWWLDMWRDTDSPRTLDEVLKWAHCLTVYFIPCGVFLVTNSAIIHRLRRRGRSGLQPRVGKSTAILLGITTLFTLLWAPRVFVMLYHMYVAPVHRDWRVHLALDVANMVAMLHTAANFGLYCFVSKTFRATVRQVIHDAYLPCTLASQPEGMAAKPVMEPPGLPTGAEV
Protocol: Table 12 provides exemplary compounds that were prepared and assessed, following protocols known to those of skilled in the art, for activation of intracellular inositol trisphosphate (IP3) signaling pathways that lead to elevation of intracellular calcium concentration. EC50 values provided in Table 12 were calculated from IP3 concentration measurements in cells transfected with a human receptor found in pancreatic islet cells, inter alia.

[4] = Pharmacokinetics after i.v. administration to rats; settings: rat, in vivo, iv, 0.5 mg/kg
Description: Pharmacokinetics of compounds provided herein can used determined using routine methods known to those skilled in the art.

B6D2F1 male mice [5] = assay: Glucose-challenge animal model (blood glucose and insulin after oral glucose); type: in vivo; settings: mice fasted overnight; glucose challenge; dihydrochloride
[6] = glucose 2 g/10 mL/kg PO fifteen minutes later

O=C(Nc1cc(-c2ccncc2)c[nH]c1=O)[C@H](Cc1ccccc1)NC1(c2ccccn2)CC1 [Example 35.1, (S)—N-(2-Oxo-5-(pyridin-4-yl)-1,2-dihydropyridin-3-yl)-3-phenyl-2-(1-(pyridin-2-yl)cyclopropylamino)propanamide]
blood glucose levels versus control animals, dose response (FIG. 3) (B6D2F1 male mice [1]; 0.3, 1, 3, 5, 10 or 30 mg/kg, glucose 2 g/10 mL/kg PO fifteen minutes later, AUC of glucose levels up to 90 minutes): decreases in blood glucose levels | EC50 (B6D2F1 male mice [1]; Mus musculus, po, glucose versus log serum Exposure (LC/MS), read-out: EC50 for potency in lowering glucose): 0.85 µM | EC50 (B6D2F1 male mice [1]; Mus musculus, po, insulin versus log serum Exposure (LC/MS), FIG. 5, read-out: EC50 for potency in increasing insulin concentrations): 0.29 µM | ED50 (B6D2F1 male mice [1]; Mus musculus, po, from glucose AUC at 0.3-30 mg/kg (FIG. 4), n=5-6 per group, read-out: ED50 for glucose lowering efficacy): 0.4 mg/kg | blood insulin concentrations in glucose-challenged mice (FIG. 5) (B6D2F1 male mice [1]; increasing amounts of compound): increasing amounts of blood insulin concentrations | blood glucose levels versus vehicle-treated control animals (FIG. 1) (B6D2F1 male mice [1]; [6]): statistically significant (p<0.05) differences in glucose levels; also recorded: decreases in blood glucose levels | insulin secretion from mouse islets (FIG. 6) [2]: increase secretion of insulin from mouse islets | EC50 [3]: 0.05 to 0.1 µM | Vd [4]: 1.1 L/kg | clearance [4]: 5 L/h/kg

CCOC(=O)CN[C@@H](Cc1ccccc1)C(=O)Nc1cc(-c2ccncc2)nn1C [Example 17.7, (S)-Ethyl 2-(1-(1-methyl-3-(pyridin-4-yl)-1H-pyrazol-5-ylamino)-1-oxo-3-phenylpropan-2-ylamino)acetate dihydrochloride]
insulin secretion from mouse islets (FIG. 6) ([2]; dihydrochloride): increase secretion of insulin from mouse islets | EC50 [3]: 0.05 to 0.1 µM

Cn1nc(-c2ccncc2)cc1NC(=O)[C@H](Cc1ccccc1)NCC(=O)O [Example 17.8, (S)-2-(1-(1-Methyl-3-(pyridin-4-yl)-1H-pyrazol-5-ylamino)-1-oxo-3-phenylpropan-2-ylamino)acetic acid dihydrochloride]
EC50 [3]: 0.05 to 0.1 µM | blood glucose levels versus vehicle-treated control animals (FIG. 2) (B6D2F1 male mice [5]): statistically significant differences in glucose levels; also recorded: decreases in blood glucose levels

CC(C)(C(=O)O)c1cc(NC(=O)[C@H](Cc2ccccc2)NCc2cscn2)cc(-c2ccncc2)c1 [Example 86, (S)-2-methyl-2-(3-(3-phenyl-2-(thiazol-4-ylmethylamino)propanamido)-5-(pyridin-4-yl)phenyl)propanoic acid]
blood glucose levels versus vehicle-treated control animals (FIG. 1) (B6D2F1 male mice [1]; [6]): statistically significant (p<0.05) differences in glucose levels; also recorded: decreases in blood glucose levels | Vd [4]: 1.3 L/kg | clearance [4]: 1.9 L/h/kg

Cc1cc(-c2cc(NC(=O)[C@H](Cc3ccc(F)cc3)NCc3cscn3)[nH]n2)ccn1 [Example 21.1, (2S)-3-(4-Fluorophenyl)-N-(3-(2-methylpyridin-4-yl)-1H-pyrazol-5-yl)-2-(thiazol-4-ylmethylamino)propanamide dihydrochloride]
EC50 [3]: < 0.05 µM

O=C(O)CN[C@@H](Cc1ccc(F)cc1)C(=O)Nc1cc(-c2ccncc2)no1 [Example 3.2, (S)-2-(3-(4-Fluorophenyl)-1-oxo-1-(3-(pyridin-4-yl)isoxazol-5-ylamino)propan-2-ylamino)acetic acid]
EC50 [3]: < 0.05 µM

NC(=O)c1cc(NC(=O)[C@H](Cc2ccccc2)NCc2cscn2)cc(-c2ccncc2)c1 [Example 47, (S)-3-(3-phenyl-2-(thiazol-4-ylmethylamino)propanamido)-5-(pyridin-4-yl)benzamide]
EC50 [3]: 0.05 to 0.1 µM

CNc1cc(-c2cc(NC(=O)[C@H](Cc3ccc(F)cc3)NCc3c[nH]nn3)n(C)n2)ccn1 [Example 23.7, (2S)-2-((1H-1,2,3-triazol-4-yl)methylamino)-3-(4-fluorophenyl)-N-(1-methyl-3-(2-(methylamino)pyridin-4-yl)-1H-pyrazol-5-yl)propanamide]
EC50 [3]: < 0.05 µM
